Patent publication US20240175863A1, “COMPOSITIONS AND METHODS FOR MONITORING ENPP1 ACTIVITY” (The Regents of University of Californa, priority 2021, published 2024)
Like-named read-outs stand apart in the source and are kept apart here.

Key:
cardiac fibroblasts [1] = test: myocyte conditioned medium transferred to cardiac fibroblasts, cell death (substance added to cardiomyocytes); assay type: cell-based, mouse; details: for cardiac fibroblast cell death by conditioned medium of cardiomyocytes treated with the substance alone: conditioned medium collected after 24 hours; for cardiac fibroblast cell death by conditioned medium of cardiomyocytes treated with AMP plus inhibitor: inhibitor added to cardiomyocytes at the time of addition of AMP
cardiac fibroblasts [2] = test: direct treatment of cardiac fibroblasts with metabolites or inhibitors, cell death and rescue; assay type: cell-based, mouse
[3] = system: C57BL/6 animals subjected to ischemic cardiac injury
cardiac fibroblasts [4] = test: rescue of cardiac fibroblast cell death induced by ENPP1+ATP myocyte conditioned medium (substance added to fibroblasts); assay type: cell-based, mouse; details: for cell death of cardiac fibroblasts treated with ENPP1+ATP myocyte conditioned medium in presence of the substance: substance added to cardiac fibroblasts
Description: Unable to readily identity the pro-apoptotic metabolites, the studies sought alternative physiologic principles of approaching the problem. The data has consistently shown that the ENPP1+ATP myocyte conditioned medium caused death of a wide range of non-myocyte cells, but that myocytes themselves are not affected. This could be possibly secondary to a specific receptor that is present in non-myocytes and not in myocytes. However, as non-myocyte cells of different lineages are affected, it was hypothesized that the ability of myocytes to be immune to the conditioned medium likely reflects an inherent cellular property of myocytes that distinguishes itself from that in non-myocyte cells tested by us. As non-myocytes are proliferative and myocytes are non-proliferative, it was hypothesized that the ability to cycle was making the non-myocytes susceptible to the metabolites secreted by the myocyte. To determine whether this was true, the studies harvested primary cardiac fibroblasts and induced cell cycle arrest of freshly harvested cardiac fibroblasts by irradiating them.
It also provided an obvious explanation as to why non-proliferative myocytes are immune to the effects of the metabolite(s). A nucleotide balance between the content of purines and pyrimidines available to cycling cells is critical to avoid genotoxic stress and maintain genomic stability. It was hypothesized that disruption of the nucleotide biosynthetic pathways in non-myocyte cells and an imbalance of purine versus pyrimidine nucleotides was inducing genotoxic stress and initiating a DNA damage response in proliferating non-myocytes. The studies treated cardiac fibroblasts with ENPP1+ATP myocyte conditioned medium for 24 hours and measured the content of nucleoside monophosphate and nucleoside triphosphates in treated cardiac fibroblasts by LC/MS-MS. […] To determine whether this is true, the studies attempted to rescue cell death of cardiac fibroblasts by adding uridine or deoxycytidine to the ENPP1+ATP myocyte conditioned medium. Cardiac fibroblasts were treated with the ENPP1+ATP myocyte conditioned medium but uridine or deoxycytidine or both were added to the cardiac fibroblasts at the time of addition of ENPP1+ATP myocyte conditioned medium (FIG. 5C). […] Deoxycytidine serves as a precursor of dCTP synthesis via the enzyme deoxycytidine kinase.
Pyrimidine biosynthesis occurs via a sequence of well-regulated steps (FIG. 5H), where carbamoyl phosphate is converted to carbamoyl aspartate and then to dihydroorotate. Dihydroorotate dehydrogenase (DHODH) then converts dihydroorotate to the pyrimidine orotate. In the presence of phosphoribosyl pyrophosphate (PRPP), orotate is converted by phosphoribosyl transferase activity of UMP synthase to orotidine monophosphate (OMP) and then decarboxylated by OMP decarboxylase activity of UMP synthase to uridine monophosphate (UMP). To determine which steps in pyrimidine biosynthesis are affected in cycling non-myocytes, the studies treated cardiac fibroblasts with ENPP1+ATP myocyte conditioned medium and 24 hours later harvested the cells and subjected the cardiac fibroblasts to mass spectrometry to determine metabolites in the pyrimidine biosynthesis pathway. […] As orotate levels were increased but orotidine levels decreased in cardiac fibroblasts treated with ENPP1+ATP myocyte conditioned medium, it was hypothesized that inhibition was occurring at the OMP synthesis step from orotate and PRPP (orotate phosphoribosyl transferase). […]

[5] = system: ENPP1 over-expressing cardiac fibroblasts; test: co-culture of ENPP1 over-expressing cardiac fibroblasts with rodent ventricular cardiomyocytes plus ATP; assay type: cell-based, mouse
[6] = system: gamma H2A.X and p53Ser15 phosphorylation in non-myocyte cells; test: immunostaining of DNA damage response in non-myocyte cells of injured hearts; assay type: in vivo, mouse; details: hearts of myricetin treated animals
pyrimidine biosynthesis = test: metabolomic analysis of hearts and serum after cardiac injury; assay type: in vivo, mouse
ENPP1 = target: T1, ENPP1 (UniProt P22413); test: cell free luciferase based luminescent assay for ENPP1 inhibitors; assay type: biochemical
T1 sequence (P22413 1-925): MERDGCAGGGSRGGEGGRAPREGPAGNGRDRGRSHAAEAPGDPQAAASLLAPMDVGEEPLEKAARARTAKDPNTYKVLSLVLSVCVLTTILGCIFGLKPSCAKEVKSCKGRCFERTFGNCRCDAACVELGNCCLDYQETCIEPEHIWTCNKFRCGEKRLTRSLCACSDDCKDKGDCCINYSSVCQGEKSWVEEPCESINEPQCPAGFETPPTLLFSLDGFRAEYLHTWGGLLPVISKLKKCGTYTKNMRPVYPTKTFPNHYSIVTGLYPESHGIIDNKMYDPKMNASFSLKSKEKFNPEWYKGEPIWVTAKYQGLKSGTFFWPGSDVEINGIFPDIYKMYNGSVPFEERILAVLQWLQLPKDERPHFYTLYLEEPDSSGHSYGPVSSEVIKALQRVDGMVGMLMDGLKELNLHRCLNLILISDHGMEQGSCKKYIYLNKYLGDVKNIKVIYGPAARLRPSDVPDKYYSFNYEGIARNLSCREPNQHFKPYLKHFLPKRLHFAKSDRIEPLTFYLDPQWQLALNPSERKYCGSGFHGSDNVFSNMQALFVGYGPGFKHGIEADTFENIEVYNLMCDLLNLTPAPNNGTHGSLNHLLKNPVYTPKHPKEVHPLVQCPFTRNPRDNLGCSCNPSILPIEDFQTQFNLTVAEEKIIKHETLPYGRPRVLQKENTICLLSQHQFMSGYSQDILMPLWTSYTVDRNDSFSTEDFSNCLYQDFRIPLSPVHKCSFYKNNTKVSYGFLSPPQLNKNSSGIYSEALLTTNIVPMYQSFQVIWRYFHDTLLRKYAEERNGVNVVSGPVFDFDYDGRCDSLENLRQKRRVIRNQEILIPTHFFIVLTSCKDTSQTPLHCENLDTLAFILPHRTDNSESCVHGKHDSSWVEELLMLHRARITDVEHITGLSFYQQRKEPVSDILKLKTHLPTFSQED

[7] = system: primary mouse embryonic fibroblasts (mEF); test: mouse embryonic fibroblasts treated with ENPP1+ATP myocyte conditioned medium, cell death; assay type: cell-based
[8] = uridine continuous infusion for 14 days
[9] = uridine continuous infusion for 14 days, day 7 after injury, mean±S.E.M., n=15
[10] = 30 mg/kg myricetin intra-peritoneally daily for 14 days
[11] = 30 mg/kg myricetin intra-peritoneally daily for 14 days, day 7 after injury, n=15
[12] = myricetin versus vehicle treated injured hearts
[13] = myricetin versus vehicle, day 3

Compound: CCNC(=O)[C@H]1O[C@@H](n2cnc3c(N)ncnc32)[C@H](O)[C@@H]1O [NECA]
- cardiac fibroblast cell death by conditioned medium of cardiomyocytes treated with the substance alone (cardiac fibroblasts [1]): did not cause fibroblast cell death

Compound: Cc1c(-c2ccc(-c3ccccc3F)cc2)nc2ccc(F)cc2c1C(=O)O [brequinar]
- cell death of cardiac fibroblasts treated directly with the substance(s) (cardiac fibroblasts [2]): cardiac fibroblast cell death

Compound: O=c1ccn([C@@H]2O[C@H](CO)[C@@H](O)[C@H]2O)c(=O)[nH]1 [uridine, Uridine]
- animals with severe post infarct fibrosis (>40% of LV surface area) [3, 8]: none
- fraction of animals with severe depression in EF (less than 20%) [3, 8]: 13%
- end systolic ventricular diameters ([3]; uridine continuous infusion for 14 days, versus vehicle): trend towards better preservation
- ejection fraction (EF) [3, 9]: 37.02±3.12%
- fractional shortening (FS) [3, 9]: 18.01±1.68%
- heart weight/body weight ratios ([3]; uridine, versus vehicle): decreased
- capillary density ([3]; uridine, 4 weeks following injury): significantly increased
- fibrosis measured at the apex and mid ventricle ([3]; uridine, 4 weeks post injury, versus vehicle): decreased fibrosis
- cell death of cardiac fibroblasts treated with adenine and adenosine plus the substance (cardiac fibroblasts [2]): rescue of cell death
- cell death of cardiac fibroblasts treated with brequinar plus uridine (cardiac fibroblasts [2]): rescue
- cell death of cardiac fibroblasts treated with the 7 compounds together with uridine (cardiac fibroblasts [2]): cell death was prevented
- cell death of cardiac fibroblasts treated with ENPP1+ATP myocyte conditioned medium in presence of the substance (cardiac fibroblasts [4]): completely rescued cell death

Compound: Nc1ncnc2c1ncn2[C@@H]1O[C@H](COP(=O)(O)CP(=O)(O)O)[C@@H](O)[C@H]1O [AMP-CP]
- cardiac fibroblast cell death by conditioned medium of cardiomyocytes treated with AMP plus inhibitor (cardiac fibroblasts [1]): significantly increases cardiac fibroblast cell death

Compound: Nc1ncnc2c1ncn2[C@@H]1O[C@H](COP(=O)(O)O)[C@@H](O)[C@H]1O [AMP, Adenosine monophosphate]
- cardiac fibroblast cell death by conditioned medium of cardiomyocytes treated with the substance alone (cardiac fibroblasts [1]): caused cell death
- cell death of cardiac fibroblasts treated directly with the substance(s) (cardiac fibroblasts [2]): did not induce cell death

Compound: Nc1ncnc2nc[nH]c12 [adenine, Adenine]
- cell death of cardiac fibroblasts after removal of the compound from the set of 7 compounds (cardiac fibroblasts [2]): no cell death
- cell death of cardiac fibroblasts treated directly with the substance(s) (cardiac fibroblasts [2]): no cell death was observed

Compound: O=C(O)c1cc(=O)[nH]c(=O)n1[C@@H]1O[C@H](COP(=O)(O)O)[C@@H](O)[C@H]1O [OMP, orotidine monophosphate]
- cell death of cardiac fibroblasts treated with adenine and adenosine plus the substance (cardiac fibroblasts [2]): rescue of cell death
- cell death of cardiac fibroblasts treated with ENPP1+ATP myocyte conditioned medium in presence of the substance (cardiac fibroblasts [4]): completely rescued cell death

Compound: Nc1ccn([C@H]2C[C@H](O)[C@@H](CO)O2)c(=O)n1 [deoxycytidine]
- cell death of cardiac fibroblasts treated with ENPP1+ATP myocyte conditioned medium in presence of the substance (cardiac fibroblasts [4]): completely rescued cell death

Compound: O=c1c(O)c(-c2cc(O)c(O)c(O)c2)oc2cc(O)cc(O)c12 [myricetin]
- cardiac fibroblast cell death with conditioned medium of cardiomyocytes treated with ENPP1+ATP plus substance, versus ENPP1+ATP conditioned medium (cardiac fibroblasts [1]): significant reduction in cell death
- fraction of animals with severe fibrosis (>40% of the LV surface area) [3, 10]: 15%
- fraction of animals with severe heart failure (EF<20%) [3, 10]: 23%
- LVIDs (ventricular chamber size) [3, 11]: 3.68±0.23
- ejection fraction [3, 11]: 38.04±3.74%
- fractional shortening [3, 11]: 18.67±2.05%
- body weight ([3]; mouse, in vivo): without any change
- capillary density ([3]; myricetin, versus vehicle): significant increase
- ventricular hypertrophy ([3]; myricetin, versus vehicle): decreased
- area of scarring at the mid ventricular and apical regions ([3]; myricetin, 4 weeks post injury, versus vehicle): significantly reduced
- cell death of cardiac fibroblasts in co-culture after addition of ATP ([5]; concomitant addition of myricetin (10 uM)): significantly attenuated cell death
- p53Ser15 phosphorylation in non-myocyte cells [6]: attenuated
- expression of gamma H2A.X in non-myocyte cells ([6]; 7 days following injury): attenuated expression
- carbamoyl aspartate in the hearts (pyrimidine biosynthesis; myricetin versus vehicle injected animals (FIG. 8K legend)): decreased
- carbamoyl phosphate levels in the injured regions of the heart (pyrimidine biosynthesis; [12]): decrease
- level of cytidine in the injured regions of the heart (pyrimidine biosynthesis; [12]): significant increase
- level of uridine in the injured regions of the heart (pyrimidine biosynthesis; [12]): significant increase
- deoxyuridine in serum (pyrimidine biosynthesis; [13]): increased
- orotate in serum (pyrimidine biosynthesis; [13]): decrease
- orotidine in serum (pyrimidine biosynthesis; myricetin versus vehicle, day 7): increased
- inhibition of ENPP1 enzymatic activity (ENPP1): ~99%

Compound: CO[C@@]12[C@H](COC(N)=O)C3=C(C(=O)C(C)=C(N)C3=O)N1C[C@@H]1N[C@@H]12 [mitomycin C]
- cell death of cardiac fibroblasts treated with ENPP1+ATP myocyte conditioned medium in presence of the substance (cardiac fibroblasts [4]): resistant to cell death
- cell death of mEF treated with ENPP1+ATP myocyte conditioned medium after cell cycle arrest [7]: prevented cell death

Compound: Nc1ncnc2c1ncn2[C@@H]1O[C@H](CO)[C@@H](O)[C@H]1O [adenosine, Adenosine]
- cardiac fibroblast cell death by conditioned medium of cardiomyocytes treated with the substance alone (cardiac fibroblasts [1]): unable to induce cell death

Compound: C[C@H](Nc1cc(Cl)nc2c1cnn2[C@@H]1O[C@H](COP(=O)(O)CP(=O)(O)O)[C@@H](O)[C@H]1O)c1ccccc1F [AB680]
- cardiac fibroblast cell death by conditioned medium of cardiomyocytes treated with AMP plus inhibitor (cardiac fibroblasts [1]): significantly increases cardiac fibroblast cell death

Compound: Nc1ncnc2c1ncn2[C@@H]1O[C@H](COP(=O)(O)OP(=O)(O)OP(=O)(O)O)[C@@H](O)[C@H]1O [ATP]
- reduction in the number of ENPP1 over-expressing cardiac fibroblasts ([5]; ATP added to co-culture with neonatal rat ventricular cardiomyocytes, within 48 hours): 75%

Compound: Nc1ncnc2nc(-c3ccc(N4CCOCC4)nc3)cc(-c3cccc(Br)c3)c12 [ABT-702]
- cardiac fibroblast cell death by conditioned medium of cardiomyocytes treated with AMP plus inhibitor (cardiac fibroblasts [1]): attenuated cell death

Compound: O=P(O)(O)OP(=O)(O)O [PPi, pyrophosphate]
- cardiac fibroblast cell death by conditioned medium of cardiomyocytes treated with the substance alone (cardiac fibroblasts [1]): not

Compound: COc1ccc(-c2nc([C@@H](C)Sc3nc(N)cc(N)n3)c(C)s2)cc1OCCN1CCOCC1 [DI-87]
- rescue by deoxycytidine of ENPP1+ATP conditioned medium induced cell death in presence of deoxycytidine kinase inhibitor (cardiac fibroblasts [4]): unable to prevent cell death
